{"source": "PubChem BioAssay AID1259407", "about": "(Chemical Carcinogenesis Research Information System (CCRIS), 2018)", "test_system": "CCRIS mutagenicity, Ames/micronucleus/aberration tests", "test": "CCRIS mutagenicity studies", "key": {"[1]": {"conditions": "Test System: AMES SALMONELLA TYPHIMURIUM, Strain/Indicator: TA98, Metabolic Activation: NONE, Method: PREINCUBATION"}, "[2]": {"conditions": "Test System: AMES SALMONELLA TYPHIMURIUM, Strain/Indicator: TA100, Metabolic Activation: RAT, LIVER, S-9, AROCLOR 1254, Method: PREINCUBATION"}, "[3]": {"conditions": "Test System: AMES SALMONELLA TYPHIMURIUM, Strain/Indicator: TA100, Metabolic Activation: NONE, Method: PREINCUBATION"}, "[4]": {"conditions": "Test System: AMES SALMONELLA TYPHIMURIUM, Strain/Indicator: TA100, Metabolic Activation: NONE, Method: STANDARD PLATE"}, "[5]": {"conditions": "Test System: AMES SALMONELLA TYPHIMURIUM, Strain/Indicator: TA98, Metabolic Activation: NONE, Method: STANDARD PLATE"}, "[6]": {"conditions": "Test System: AMES SALMONELLA TYPHIMURIUM, Strain/Indicator: TA1537, Metabolic Activation: NONE, Method: STANDARD PLATE"}}, "note": "Activity calls are given as the source filed them. The rule behind the calls is not given here.", "data": [{"molecule": "COC(=O)C(=Cc1ccc([N+](=O)[O-])o1)[N+](=O)[O-]", "values": [{"measurement": "mutagenic call", "setting": "[1]", "value": "active; positive"}]}, {"molecule": "Fc1cccc2ncccc12", "values": [{"measurement": "mutagenic call", "setting": "End Point: In vitro chromosomal aberrations, Test System: Chinese hamster lung fibroblast cells (CHL/IU), Metabolic Activation: Rat, liver, S-9", "value": "active; positive, described as marginally clastogenic at non toxic doses. (information d"}, {"measurement": "mutagenic call", "setting": "End Point: In vitro micronucleus, Test System: Chinese hamster lung fibroblast cells (CHL/IU), Metabolic Activation: Rat, liver, S-9", "value": "active; positive (information derived from a figure)"}, {"measurement": "mutagenic call", "setting": "Test System: AMES SALMONELLA TYPHIMURIUM, Strain/Indicator: TA100, Metabolic Activation: RAT LIVER S-9, PHENOBARBITAL AND 5,6-BENZOFLAVONE, Method: PREINCUBATION", "value": "active; positive"}, {"measurement": "mutagenic call", "setting": "[2]", "value": "active; positive"}, {"measurement": "mutagenic call", "setting": "Test System: AMES SALMONELLA TYPHIMURIUM, Strain/Indicator: TA100, Metabolic Activation: RAT, LIVER, S-9, PHENOBARBITAL AND 5,6-BENZOFLAVONE, Method: PREINCUBATION", "value": "active; positive"}, {"measurement": "mutagenic call", "setting": "Test System: AMES SALMONELLA TYPHIMURIUM, Strain/Indicator: TA100, Metabolic Activation: RAT, LIVER, S-9, PHENOBARBITAL AND 5,6-NAPHTHOFLAVONE, Method: PREINCUBATION", "value": "active; positive"}, {"measurement": "mutagenic call", "setting": "Test System: UDS RODENT HEPATOCYTES, Strain/Indicator: THY INCORP (NON-S-PHASE), Metabolic Activation: NONE, Method: AUTORADIOGRAPHY", "value": "active; positive"}]}, {"molecule": "CCc1cccc(CC)c1NC(=O)CO", "values": [{"measurement": "mutagenic call", "setting": "[1]", "value": "inactive; negative"}, {"measurement": "mutagenic call", "setting": "Test System: AMES SALMONELLA TYPHIMURIUM, Strain/Indicator: TA98, Metabolic Activation: RAT, LIVER, MICROSOMES, PHENOBARBITAL, Method: PREINCUBATION", "value": "inactive; negative"}, {"measurement": "mutagenic call", "setting": "[3]", "value": "inactive; negative"}, {"measurement": "mutagenic call", "setting": "Test System: AMES SALMONELLA TYPHIMURIUM, Strain/Indicator: TA100, Metabolic Activation: RAT, LIVER, MICROSOMES, PHENOBARBITAL, Method: PREINCUBATION", "value": "active; positive"}]}, {"molecule": "C=C1N(C)c2ccccc2C1(C)C", "values": [{"measurement": "mutagenic call", "setting": "Test System: MOUSE LYMPHOMA, Strain/Indicator: L5178Y (TK+/TK-), Metabolic Activation: NONE, Method: SUSPENSION/PLATE", "value": "inactive; negative. reevaluation of results: negative"}, {"measurement": "mutagenic call", "setting": "Test System: MOUSE LYMPHOMA, Strain/Indicator: L5178Y (TK+/TK-), Metabolic Activation: RAT, LIVER, S-9, AROCLOR 1254, Method: SUSPENSION/PLATE", "value": "active; positive. reevaluation of results: positive"}, {"measurement": "mutagenic call", "setting": "Test System: Mouse lymphoma, Strain/Indicator: L5178Y (tk+/tk-), Metabolic Activation: None, Method: Suspension/plate", "value": "inactive; negative"}, {"measurement": "mutagenic call", "setting": "Test System: Mouse lymphoma, Strain/Indicator: L5178Y (tk+/tk-), Metabolic Activation: Rat, Liver, S-9, Aroclor 1254, Method: Suspension/plate", "value": "active; positive"}]}, {"molecule": "O=C(OCc1ccccc1[N+](=O)[O-])c1ccccc1", "values": [{"measurement": "mutagenic call", "setting": "[1]", "value": "inactive; negative"}, {"measurement": "mutagenic call", "setting": "[3]", "value": "inactive; negative"}, {"measurement": "mutagenic call", "setting": "[2]", "value": "inactive; negative"}]}, {"molecule": "O=C(O)C(Cl)=C(C(Cl)Cl)C(Cl)Cl", "values": [{"measurement": "mutagenic call", "setting": "[1]", "value": "active; positive"}, {"measurement": "mutagenic call", "setting": "[3]", "value": "active; positive"}, {"measurement": "mutagenic call", "setting": "[4]", "value": "active; positive"}, {"measurement": "mutagenic call", "setting": "Test System: AMES SALMONELLA TYPHIMURIUM, Strain/Indicator: TA104, Metabolic Activation: NONE, Method: PREINCUBATION", "value": "active; positive"}]}, {"molecule": "Cc1ccc(C(=O)n2ncc(Cl)c(Cl)c2=O)cc1", "values": [{"measurement": "mutagenic call", "setting": "[5]", "value": "inactive; negative"}, {"measurement": "mutagenic call", "setting": "Test System: AMES SALMONELLA TYPHIMURIUM, Strain/Indicator: TA98, Metabolic Activation: RAT, LIVER, S-9, AROCLOR 1254, Method: STANDARD PLATE", "value": "inactive; negative"}, {"measurement": "mutagenic call", "setting": "[4]", "value": "inactive; negative"}, {"measurement": "mutagenic call", "setting": "Test System: AMES SALMONELLA TYPHIMURIUM, Strain/Indicator: TA100, Metabolic Activation: RAT, LIVER, S-9, AROCLOR 1254, Method: STANDARD PLATE", "value": "inactive; negative"}, {"measurement": "mutagenic call", "setting": "Test System: AMES SALMONELLA TYPHIMURIUM, Strain/Indicator: TA1535, Metabolic Activation: NONE, Method: STANDARD PLATE", "value": "inactive; negative"}, {"measurement": "mutagenic call", "setting": "Test System: AMES SALMONELLA TYPHIMURIUM, Strain/Indicator: TA1535, Metabolic Activation: RAT, LIVER, S-9, AROCLOR 1254, Method: STANDARD PLATE", "value": "inactive; negative"}, {"measurement": "mutagenic call", "setting": "[6]", "value": "inactive; negative"}, {"measurement": "mutagenic call", "setting": "Test System: AMES SALMONELLA TYPHIMURIUM, Strain/Indicator: TA1537, Metabolic Activation: RAT, LIVER, S-9, AROCLOR 1254, Method: STANDARD PLATE", "value": "inactive; negative"}]}, {"molecule": "OC1C=Cc2c(cc3ccc4cccc5ccc2c3c45)C1O", "note": "(stereo unspecified)", "values": [{"measurement": "mutagenic call", "setting": "Test System: CHINESE HAMSTER V-79, Strain/Indicator: V-79/OUABAIN, Metabolic Activation: HAMSTER, EMBRYO, CELL-MEDIATED, Method: STANDARD PLATE", "value": "active; positive"}]}, {"molecule": "CCCCN(C[C@@H](CO)OCc1ccccc1)N=O", "values": [{"measurement": "mutagenic call", "setting": "[3]", "value": "active; positive"}, {"measurement": "mutagenic call", "setting": "Test System: AMES SALMONELLA TYPHIMURIUM, Strain/Indicator: TA100, Metabolic Activation: RAT, LIVER, S-9, PCB, Method: PREINCUBATION", "value": "active; positive"}]}, {"molecule": "CC(=O)Nc1ccc2[nH]c3ccccc3c2c1", "values": [{"measurement": "mutagenic call", "setting": "[5]", "value": "inactive; negative"}, {"measurement": "mutagenic call", "setting": "Test System: AMES SALMONELLA TYPHIMURIUM, Strain/Indicator: TA98, Metabolic Activation: RAT, LIVER, S-9, PHENOBARBITAL, Method: STANDARD PLATE", "value": "active; positive"}, {"measurement": "mutagenic call", "setting": "[4]", "value": "inactive; negative"}, {"measurement": "mutagenic call", "setting": "Test System: AMES SALMONELLA TYPHIMURIUM, Strain/Indicator: TA100, Metabolic Activation: RAT, LIVER, S-9, PHENOBARBITAL, Method: STANDARD PLATE", "value": "inactive; negative"}, {"measurement": "mutagenic call", "setting": "[6]", "value": "inactive; negative"}, {"measurement": "mutagenic call", "setting": "Test System: AMES SALMONELLA TYPHIMURIUM, Strain/Indicator: TA1537, Metabolic Activation: RAT, LIVER, S-9, PHENOBARBITAL, Method: STANDARD PLATE", "value": "inactive; negative"}, {"measurement": "mutagenic call", "setting": "Test System: AMES SALMONELLA TYPHIMURIUM, Strain/Indicator: TA1538, Metabolic Activation: NONE, Method: STANDARD PLATE", "value": "inactive; negative"}, {"measurement": "mutagenic call", "setting": "Test System: AMES SALMONELLA TYPHIMURIUM, Strain/Indicator: TA1538, Metabolic Activation: RAT, LIVER, S-9, PHENOBARBITAL, Method: STANDARD PLATE", "value": "active; positive"}, {"measurement": "mutagenic call", "setting": "Test System: AMES SALMONELLA TYPHIMURIUM, Strain/Indicator: TA1977, Metabolic Activation: NONE, Method: STANDARD PLATE", "value": "inactive; negative"}, {"measurement": "mutagenic call", "setting": "Test System: AMES SALMONELLA TYPHIMURIUM, Strain/Indicator: TA1977, Metabolic Activation: RAT, LIVER, S-9, PHENOBARBITAL, Method: STANDARD PLATE", "value": "inactive; negative"}]}, {"molecule": "CCNCC", "values": [{"measurement": "mutagenic call", "setting": "Test System: AMES SALMONELLA TYPHIMURIUM, Strain/Indicator: TA98, Metabolic Activation: HAMSTER, LIVER, S-9, AROCLOR 1254 (10%), Method: PREINCUBATION", "value": "inactive; negative"}, {"measurement": "mutagenic call", "setting": "[1]", "value": "inactive; negative"}, {"measurement": "mutagenic call", "setting": "Test System: AMES SALMONELLA TYPHIMURIUM, Strain/Indicator: TA98, Metabolic Activation: RAT, LIVER, S-9, AROCLOR 1254 (10%), Method: PREINCUBATION", "value": "inactive; negative"}, {"measurement": "mutagenic call", "setting": "Test System: AMES SALMONELLA TYPHIMURIUM, Strain/Indicator: TA100, Metabolic Activation: HAMSTER, LIVER, S-9, AROCLOR 1254 (10%), Method: PREINCUBATION", "value": "inactive; negative"}, {"measurement": "mutagenic call", "setting": "[3]", "value": "inactive; negative"}, {"measurement": "mutagenic call", "setting": "Test System: AMES SALMONELLA TYPHIMURIUM, Strain/Indicator: TA100, Metabolic Activation: RAT, LIVER, S-9, AROCLOR 1254 (10%), Method: PREINCUBATION", "value": "inactive; negative"}, {"measurement": "mutagenic call", "setting": "Test System: AMES SALMONELLA TYPHIMURIUM, Strain/Indicator: TA1535, Metabolic Activation: HAMSTER, LIVER, S-9, AROCLOR 1254 (10%), Method: PREINCUBATION", "value": "inactive; negative"}, {"measurement": "mutagenic call", "setting": "Test System: AMES SALMONELLA TYPHIMURIUM, Strain/Indicator: TA1535, Metabolic Activation: NONE, Method: PREINCUBATION", "value": "inactive; negative"}, {"measurement": "mutagenic call", "setting": "Test System: AMES SALMONELLA TYPHIMURIUM, Strain/Indicator: TA1535, Metabolic Activation: RAT, LIVER, S-9, AROCLOR 1254 (10%), Method: PREINCUBATION", "value": "inactive; negative"}, {"measurement": "mutagenic call", "setting": "Test System: AMES SALMONELLA TYPHIMURIUM, Strain/Indicator: TA1537, Metabolic Activation: HAMSTER, LIVER, S-9, AROCLOR 1254 (10%), Method: PREINCUBATION", "value": "inactive; negative"}, {"measurement": "mutagenic call", "setting": "Test System: AMES SALMONELLA TYPHIMURIUM, Strain/Indicator: TA1537, Metabolic Activation: NONE, Method: PREINCUBATION", "value": "inactive; negative"}, {"measurement": "mutagenic call", "setting": "Test System: AMES SALMONELLA TYPHIMURIUM, Strain/Indicator: TA1537, Metabolic Activation: RAT, LIVER, S-9, AROCLOR 1254 (10%), Method: PREINCUBATION", "value": "inactive; negative"}]}]}
